Results published in patent US20230233569A1 (Revolution Medicines, Inc., priority 2020, published 2023).
Where two headings read alike, the source gives them in different places.

Experiments:
Assay in all cases: Disruption of BRAF RBD interaction with Ras (FRET / MOA assay, with Cyclophilin A)
Type in all cases: biochemical
[1] = molecular target: NRAS G12C (Homo sapiens, UniProt P01111+P62937, G12C); conditions: NRAS G12C; read-out: NRAS G12C FRET data IC50
Source text: (§1) This protocol may also be executed substituting other Ras proteins or nucleotides.
(§2) The purpose of this biochemical assay was to measure the ability of test compounds to facilitate ternary complex formation between a nucleotide-loaded K-Ras isoform and Cyclophilin A; the resulting ternary complex disrupts binding to a BRAF^RBD construct, inhibiting K-Ras signaling through a RAF effector. Data is reported as IC50 values.
(§3) Compound was present in plate wells as a 10-point 3-fold dilution series starting at a final concentration of 30 μM. After incubation at 25° C. for 3 hours, a mixture of Anti-His Eu-W1024 and anti-GST allophycocyanin was then added to assay sample wells at final concentrations of 10 nM and 50 nM, respectively, and the reaction incubated for an additional 1.5 hours. […] Compounds that facilitate disruption of a K-Ras:RAF complex were identified as those eliciting a decrease in the TR-FRET ratio relative to DMSO control wells.
(§4) The purpose of this biochemical assay was to measure the ability of test compounds to facilitate ternary complex formation between a nucleotide-loaded K-Ras isoform and Cyclophilin A; the resulting ternary complex disrupts binding to a BRAF^RBDD construct, inhibiting K-Ras signaling through a RAF effector. Data is reported as IC50 values.

[2] = molecular target: KRAS G12D (Homo sapiens, UniProt P01116+P62937, G12D); conditions: read-out: KRAS G12D FRET data, IC50
Source text: as §1, §2, §3, §4

[3] = molecular target: KRAS G13C (Homo sapiens, UniProt P01116+P62937, G13C)
Source text: as §1, §2, §3, §4

[4] = molecular target: KRAS G12C (Homo sapiens, UniProt P01116+P62937, G12C)
Source text: as §1, §2, §3, §4

[5] = molecular target: KRAS G12V (Homo sapiens, UniProt P01116+P62937, G12V); conditions: KRAS G12V; read-out: KRAS G12V FRET data IC50
Source text: as §1, §2, §3, §4

[6] = molecular target: KRAS WT (Homo sapiens, UniProt P01116+P62937); conditions: KRAS WT; read-out: KRAS WT FRET data IC50
Source text: as §1, §2, §3, §4

[7] = molecular target: KRAS G12S (Homo sapiens, UniProt P01116+P62937, G12S); conditions: read-out: KRAS G12S FRET data, IC50
Source text: as §1, §2, §3, §4

[8] = molecular target: KRAS G13D (Homo sapiens, UniProt P01116+P62937, G13D)
Source text: as §1, §2, §3, §4

[9] = read-out: KRAS G13C FRET data, IC50
[10] = read-out: KRAS G12C FRET data, IC50
[11] = KRAS G13D, read-out: KRAS G13D FRET data IC50
[12] = KRAS G13C, read-out: KRAS G13C FRET data IC50
[13] = KRAS G12C, read-out: KRAS G12C FRET data IC50

KRAS G12S, sequence (P01116 1-169 isoform P01116-2 G12S limits assumed): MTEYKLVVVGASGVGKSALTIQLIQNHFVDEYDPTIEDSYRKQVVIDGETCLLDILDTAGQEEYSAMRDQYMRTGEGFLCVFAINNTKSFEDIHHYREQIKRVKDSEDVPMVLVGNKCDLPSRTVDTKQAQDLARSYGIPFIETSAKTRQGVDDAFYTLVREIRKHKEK
KRAS G12S, sequence (P62937 whole entry): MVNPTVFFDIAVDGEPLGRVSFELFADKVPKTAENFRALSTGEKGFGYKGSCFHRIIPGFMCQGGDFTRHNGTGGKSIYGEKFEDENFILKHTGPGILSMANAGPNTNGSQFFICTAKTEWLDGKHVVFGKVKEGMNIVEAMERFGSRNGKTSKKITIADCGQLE
KRAS G12C, sequence (P01116 1-169 isoform P01116-2 G12C): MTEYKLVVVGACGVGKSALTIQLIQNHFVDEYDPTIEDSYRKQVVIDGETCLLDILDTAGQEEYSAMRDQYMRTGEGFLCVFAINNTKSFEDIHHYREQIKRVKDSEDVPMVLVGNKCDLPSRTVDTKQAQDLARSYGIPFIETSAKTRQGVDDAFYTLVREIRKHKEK
KRAS G12C, sequence (P62937 whole entry): as the sequence (P62937 whole entry) above
KRAS WT, sequence (P01116 1-169 isoform P01116-2 limits assumed): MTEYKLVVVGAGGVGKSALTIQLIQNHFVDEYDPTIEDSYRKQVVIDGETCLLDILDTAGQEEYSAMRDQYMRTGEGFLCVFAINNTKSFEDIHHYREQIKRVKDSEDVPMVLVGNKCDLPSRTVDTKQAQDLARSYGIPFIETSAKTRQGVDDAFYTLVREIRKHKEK
KRAS WT, sequence (P62937 whole entry): as the sequence (P62937 whole entry) above
KRAS G12V, sequence (P01116 1-169 isoform P01116-2 G12V limits assumed): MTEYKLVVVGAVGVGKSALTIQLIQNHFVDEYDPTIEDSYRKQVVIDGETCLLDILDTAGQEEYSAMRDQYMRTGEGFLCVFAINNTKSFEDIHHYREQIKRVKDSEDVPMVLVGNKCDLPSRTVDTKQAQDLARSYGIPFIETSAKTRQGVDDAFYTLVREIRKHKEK
KRAS G12V, sequence (P62937 whole entry): as the sequence (P62937 whole entry) above
NRAS G12C, sequence (P01111 whole entry G12C): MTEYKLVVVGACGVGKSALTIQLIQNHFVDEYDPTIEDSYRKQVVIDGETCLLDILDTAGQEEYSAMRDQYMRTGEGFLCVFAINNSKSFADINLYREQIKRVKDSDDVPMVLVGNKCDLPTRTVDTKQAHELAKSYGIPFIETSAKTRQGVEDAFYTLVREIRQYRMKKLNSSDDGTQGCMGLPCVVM
NRAS G12C, sequence (P62937 whole entry): as the sequence (P62937 whole entry) above
KRAS G13C, sequence (P01116 1-169 isoform P01116-2 G13C): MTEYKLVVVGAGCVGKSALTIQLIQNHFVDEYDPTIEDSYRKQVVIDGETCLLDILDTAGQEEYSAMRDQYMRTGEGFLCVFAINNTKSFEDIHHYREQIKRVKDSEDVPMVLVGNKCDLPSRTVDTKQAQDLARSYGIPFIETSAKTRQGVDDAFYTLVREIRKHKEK
KRAS G13C, sequence (P62937 whole entry): as the sequence (P62937 whole entry) above
KRAS G13D, sequence (P01116 1-169 isoform P01116-2 G13D limits assumed): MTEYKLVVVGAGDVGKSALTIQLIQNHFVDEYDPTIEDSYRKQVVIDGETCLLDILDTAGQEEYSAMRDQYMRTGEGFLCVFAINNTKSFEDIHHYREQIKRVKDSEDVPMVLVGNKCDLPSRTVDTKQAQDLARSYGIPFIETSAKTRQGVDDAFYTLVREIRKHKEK
KRAS G13D, sequence (P62937 whole entry): as the sequence (P62937 whole entry) above
KRAS G12D, sequence (P01116 1-169 isoform P01116-2 G12D limits assumed): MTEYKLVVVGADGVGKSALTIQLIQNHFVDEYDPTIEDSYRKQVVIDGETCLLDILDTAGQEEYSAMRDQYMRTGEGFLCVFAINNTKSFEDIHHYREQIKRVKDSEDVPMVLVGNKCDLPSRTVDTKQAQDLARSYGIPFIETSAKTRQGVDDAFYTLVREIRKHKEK
KRAS G12D, sequence (P62937 whole entry): as the sequence (P62937 whole entry) above

CCn1c(-c2cnccc2COC)c2c3cc(ccc31)-c1cc(O)cc(c1)C[C@H](NC(=O)[C@H](C(C)C)N(C)C(=O)OC1CNC1)C(=O)N1CCC[C@H](N1)C(=O)OCC(C)(C)C2 [Example A81]
IC50 [1]: 100 to 1000 nM | IC50 [2]: 100 to 1000 nM | IC50 [3, 9]: 100 to 1000 nM | IC50 [4, 10]: 100 to 1000 nM | IC50 [5]: 1000 to 10000 nM | IC50 [6]: 100 to 1000 nM | IC50 [7]: 100 to 1000 nM | IC50 [8, 11]: 100 to 1000 nM

CCn1c(-c2cccnc2[C@H](C)OC)c2c3cc(ccc31)-c1cc(O)cc(c1)C[C@H](NS(=O)(=O)CC1CC1)C(=O)N1CCC[C@H](N1)C(=O)OCC(C)(C)C2 [Example A200]
IC50 [1]: > 10000 nM | IC50 [3, 9]: > 10000 nM | IC50 [6]: > 10000 nM

C=CC(=O)N1CC[C@H](C(=O)N(C)[C@H](C(=O)N[C@H]2Cc3nc(cs3)-c3ccc4c(c3)c(c(-c3cccnc3COC)n4CC)CC(C)(C)COC(=O)[C@@H]3CCCN(N3)C2=O)C(C)C)C1 [Example A094]
IC50 [1]: 100 to 1000 nM | IC50 [2]: > 10000 nM | IC50 [3, 12]: > 10000 nM | IC50 [4, 13]: 100 to 1000 nM | IC50 [5]: > 10000 nM | IC50 [6]: > 10000 nM | IC50 [7]: > 10000 nM | IC50 [8, 11]: > 10000 nM

C=CC(=O)N1CC[C@]2(COCCN2C(=O)N(C)[C@H](C(=O)N[C@H]2Cc3nc(cs3)-c3ccc4c(c3)c(c(-c3cccnc3[C@H](C)OC)n4CC)CC(C)(C)COC(=O)[C@@H]3CCCN(N3)C2=O)C(C)C)C1 (atropisomer, axis not shown) [Example A677]
IC50 [1]: 100 to 1000 nM

CCn1c(-c2cnccc2COC)c2c3cc(ccc31)-c1cc(O)cc(c1)C[C@H](NC(=O)[C@H](C(C)C)N(C)CC(F)(F)F)C(=O)N1CCC[C@H](N1)C(=O)OCC(C)(C)C2 [Example A77]
IC50 [1]: > 10000 nM | IC50 [2]: > 10000 nM | IC50 [3, 9]: 1000 to 10000 nM | IC50 [4, 10]: 1000 to 10000 nM | IC50 [5]: > 10000 nM | IC50 [6]: > 10000 nM | IC50 [7]: > 10000 nM | IC50 [8, 11]: 1000 to 10000 nM

CCC(=O)N1CC[C@H](C(=O)N(C)[C@H](C(=O)N[C@H]2Cc3cc(O)cc(c3)-c3ccc4c(c3)c(c(-c3ccccc3CCOC)n4CC)CC(C)(C)COC(=O)[C@@H]3CCCN(N3)C2=O)C(C)C)C1 [Example A34]
IC50 [3, 9]: 1000 to 10000 nM | IC50 [4, 10]: 100 to 1000 nM | IC50 [5]: 1000 to 10000 nM | IC50 [6]: 1000 to 10000 nM | IC50 [7]: 1000 to 10000 nM | IC50 [8, 11]: 1000 to 10000 nM

CCn1c(-c2cccnc2[C@H](C)OC)c2c3cc(ccc31)-c1cc(O)cc(c1)C[C@H](NS(=O)(=O)c1cn(C)c(C)n1)C(=O)N1CCC[C@H](N1)C(=O)OCC(C)(C)C2 [Example A197]
IC50 [1]: > 10000 nM | IC50 [3, 9]: > 10000 nM | IC50 [6]: > 10000 nM

CCn1c(-c2cccnc2[C@H](C)OC)c2c3cc(ccc31)-c1csc(n1)C[C@H](NC(=O)[C@H](C(C)C)N(C)C(=O)N1CC3(CCCN(C)C3=O)C1)C(=O)N1CCC[C@H](N1)C(=O)OCC(C)(C)C2 [Example A453]
IC50 [8, 11]: > 10000 nM

CCn1c(-c2cccnc2[C@H](C)OC)c2c3cc(ccc31)-c1cc(O)cc(c1)C[C@H](NS(=O)(=O)CC1CCC3(CNC3)C1)C(=O)N1CCC[C@H](N1)C(=O)OCC(C)(C)C2 (mixture of isomers) [Example A188]
IC50 [1]: > 10000 nM | IC50 [4, 10]: > 10000 nM | IC50 [6]: > 10000 nM | IC50 [7]: > 10000 nM | IC50 [8, 11]: > 10000 nM

CCn1c(-c2cccnc2COC)c2c3cc(ccc31)-c1cc(O)cc(c1)C[C@H](NC(=O)[C@H](C(C)C)N(C)C(=O)[C@H]1CCN(C(=O)C#CCN3CCOCC3)C1)C(=O)N1CCC[C@H](N1)C(=O)OCC(C)(C)C2 [Example A095]
IC50 [1]: < 10 nM | IC50 [2]: > 10000 nM | IC50 [4, 13]: < 10 nM

CCn1c(-c2cccnc2[C@H](C)OC)c2c3cc(ccc31)-c1csc(n1)C[C@H](NC(=O)[C@H](C(C)C)N(C)C(=O)C1COC1)C(=O)N1CCC[C@H](N1)C(=O)OCC(C)(C)C2 [Example A245]
IC50 ([8]; KRAS G13D FRET data IC50, KRAS G13D): > 10000 nM

C=CC(=O)N1CC[C@H](C(=O)N(C)[C@H](C(=O)N[C@H]2Cc3cc(O)cc(c3)-c3ccc4c(c3)c(c(-c3ccncc3COC)n4CC)CC(C)(C)COC(=O)[C@@H]3CCCN(N3)C2=O)C(C)C)C1 [Example A091]
IC50 [2]: 1000 to 10000 nM | IC50 [3, 12]: 100 to 1000 nM | IC50 [4, 13]: 10 to 100 nM | IC50 [5]: 100 to 1000 nM | IC50 [6]: 100 to 1000 nM | IC50 [7]: 100 to 1000 nM

C=CC(=O)N1CC(OC[C@H](C(=O)N[C@H]2Cc3cccc(c3)-c3ccc4c(c3)c(c(-c3cccnc3[C@H](C)OC)n4CC)CC(C)(C)COC(=O)[C@@H]3CCCN(N3)C2=O)C(C)C)C1 (racemic) [Example A484]
IC50 [1]: 1000 to 10000 nM | IC50 [5]: > 10000 nM | IC50 [6]: > 10000 nM

C=CC(=O)N1CC[C@H](C(=O)N(C)[C@H](C(=O)N[C@H]2Cc3cccc(c3)-c3ccc4c(c3)c(c(-c3cc(CN(C)C)cnc3[C@H](C)OC)n4CC)CC(C)(C)COC(=O)[C@@H]3CCCN(N3)C2=O)C(C)C)C1 [Example A523]
IC50 [1]: 1000 to 10000 nM | IC50 [3, 12]: > 10000 nM | IC50 [4, 13]: 1000 to 10000 nM | IC50 [5]: > 10000 nM | IC50 [6]: > 10000 nM | IC50 [7]: > 10000 nM | IC50 [8, 11]: > 10000 nM

C=CC(=O)N1CC[C@H](C(=O)N(C)[C@H](C(=O)N[C@H]2Cc3cc(OC(=O)CN)cc(c3)-c3ccc4c(c3)c(c(-c3ccccc3CCOC)n4CC)CC(C)(C)COC(=O)[C@@H]3CCCN(N3)C2=O)C(C)C)C1 [Example A008]
IC50 [2]: > 10000 nM | IC50 [3, 12]: 1000 to 10000 nM | IC50 [4, 13]: 100 to 1000 nM | IC50 [5]: 1000 to 10000 nM | IC50 [6]: 1000 to 10000 nM | IC50 [7]: 1000 to 10000 nM

C=CC(=O)N1CC[C@H](C(=O)N(C)[C@H](C(=O)N[C@H]2Cc3cc(O)cc(c3)-c3ccc4c(c3)c(c(-c3cnccc3COC)n4CC)CC(C)(C)COC(=O)[C@@H]3CCCN(N3)C2=O)C(C)C)C1 [Examples A028]
IC50 [2]: 100 to 1000 nM | IC50 [3, 12]: 100 to 1000 nM | IC50 [4, 13]: 10 to 100 nM | IC50 [5]: 10 to 100 nM | IC50 [6]: 100 to 1000 nM | IC50 [7]: 10 to 100 nM | IC50 [8, 11]: 100 to 1000 nM

CCn1c(-c2ccccc2CN(C)C)c2c3cc(ccc31)-c1cc(O)cc(c1)C[C@H](NC(=O)[C@H](C(C)C)N(C)C(=O)[C@H]1CCN(C(=O)/C=C/CN(C)C)C1)C(=O)N1CCC[C@H](N1)C(=O)OCC(C)(C)C2 [Example A047]
IC50 [2]: 1000 to 10000 nM | IC50 [3, 12]: 100 to 1000 nM | IC50 [4, 13]: 10 to 100 nM | IC50 [5]: 100 to 1000 nM | IC50 [6]: 1000 to 10000 nM | IC50 [7]: 100 to 1000 nM

CCn1c(-c2ccccc2CN(C)C)c2c3cc(ccc31)-c1cc(O)cc(c1)C[C@H](NC(=O)[C@H](C(C)C)N(C)C(=O)c1ccc(NC(=O)/C=C/CN(C)C)cn1)C(=O)N1CCC[C@H](N1)C(=O)OCC(C)(C)C2 [Example A046]
IC50 [2]: 1000 to 10000 nM | IC50 [3, 12]: 10 to 100 nM | IC50 [4, 13]: 100 to 1000 nM | IC50 [5]: 1000 to 10000 nM | IC50 [6]: > 10000 nM | IC50 [7]: > 10000 nM

C=CC(=O)N1CC[C@H](C(=O)N(C)[C@H](C(=O)N[C@H]2Cc3cc(O)cc(c3)-c3ccc4c(c3)c(c(-c3ccc(CN5CC[C@@H](O)C5)cc3)n4CC)CC(C)(C)COC(=O)[C@@H]3CCCN(N3)C2=O)C(C)C)C1 [Examples A001]
IC50 [2]: > 10000 nM | IC50 [3, 12]: 1000 to 10000 nM | IC50 [4, 13]: 100 to 1000 nM | IC50 [5]: 1000 to 10000 nM | IC50 [6]: > 10000 nM | IC50 [7]: 1000 to 10000 nM
